This note sets out measurements from patent US20250092065A1, “2-(INDAZOL-5-YL)-6-(PIPERIDIN-4-YL)-1,7-NAPHTHYRIDINE DERIVATIVES AND RELATED COMPOUNDS AS MODULATORS FOR SPLICING NUCLEIC ACIDS AND FOR THE TREATMENT OF PROLIFERATIVE DISEASES” (REMIX THERAPEUTICS INC., priority 2022, published 2025).

Each structure is given as a SMILES string. Read-outs that look alike come from different tables or passages of the source.

For one test, the system named is SMN2 mRNA. The experiment in a line: RT-qPCR splicing assay, SMN2 mRNA. To be noted: canonical junction qPCR panel, Table 4, read-out: SMN2 IC50 (decrease in CJ mRNA levels). Type of test: cell-based, human. A digest of the protocol: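 Junction-specific RT-qPCR read-out: CJ and AJ isoform levels, housekeeper-normalized (GAPDH/GUSB/PPIA), ΔΔCt vs DMSO, converted to RQ then % response. Cells: A673 (DMEM/10% FBS, adhered 24 h) or K562 (IMDM/10% FBS). Compound 11-pt 3-fold, top 10 uM, 24 h, 37 °C.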
For orientation: In qPCR the cycle at which signal appears reflects the starting amount.

A further test concerns MYB. Kind of test: HiBiT protein abundance assay, MYB (K562 HiBiT knock-in). Type of test: cell-based, human. The following applies: HiBiT knock-in K562 cells, 24 hours, top dose 10 μM. A digest of the protocol: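 K562 HiBiT knock-in, 24 h, 37 °C, top 10 μM final, 3-fold ×10, DMSO ≤0.25%. Lytic HiBiT luminescence; PC = parental K562, NC = DMSO; 4PL IC50.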

Regarding `Cn1cc2cc(-c3ccc4nc(N5CCC(NC6CC6)C5)ccc4n3)c(O)c(F)c2n1` (racemic) [Compound 287, 5-{6-[3-(cyclopropylamino)pyrrolidin-1-yl]-1,5-naphthyridin-2-yl}-7-fluoro-2-methylindazol-6-ol; trifluoroacetic acid], the IC50 in the test with SMN2 mRNA (Homo sapiens) and in the test with MYB was < 100 nM each time.

As for `CC(C)N[C@@H]1CCN(c2ccc3nc(-c4cc5cn(C)nc5c(F)c4O)ccc3n2)C1` (single isomer, unassigned) [Compound 285], the concentration for half-maximal inhibition (IC50) in the test on SMN2 mRNA (Homo sapiens) and in the test with MYB was < 100 nM each time.

On to `CC(C)N[C@H]1CCN(c2ccc3nc(-c4cc5cn(C)nc5c(F)c4O)ccc3n2)C1` (single isomer, unassigned) [Compound 286], for which the IC50 in the test on SMN2 mRNA (Homo sapiens) and in the test with MYB was < 100 nM in each case.

Take `Cc1c(O)c(-c2ccc3nc(N4CC[C@@H](NC5CCC5)C4)ccc3n2)cc2cn(C)nc12` (single isomer, unassigned) [Compound 289]: the half-maximal inhibitory concentration (IC50) in the test with SMN2 mRNA (Homo sapiens) and in the test with MYB was < 100 nM throughout.

For the compound `Cc1c(O)c(-c2ccc3nc(N4CC[C@H](NC5CCC5)C4)ccc3n2)cc2cn(C)nc12` (single isomer, unassigned) [Compound 290], the 50% inhibitory concentration (IC50) in the test on SMN2 mRNA (Homo sapiens) and in the test with MYB was < 100 nM throughout.

Consider `Cc1nc2cc(O)c(-c3ccc4nc(N5CCC(NCC6CC6)C5)ccc4n3)cc2o1` (single isomer, unassigned) [Compound 291, 6-(6-{3-[(cyclopropylmethyl)amino]pyrrolidin-1-yl}-1,5-naphthyridin-2-yl)-2-methyl-1,3-benzoxazol-5-ol], for which the values for the IC50 in the test on SMN2 mRNA (Homo sapiens) and with MYB were < 100 nM and 100 to 1000 nM, respectively.

Take `Cc1nc2cc(O)c(-c3ccc4nc(N5CCC(NCC6CC6)C5)ccc4n3)cc2o1` (single isomer, unassigned) [Compound 292, 6-(6-{3-[(cyclopropylmethyl)amino]pyrrolidin-1-yl}-1,5-naphthyridin-2-yl)-2-methyl-1,3-benzoxazol-5-ol]: the half-inhibitory concentration (IC50) (commonly the concentration that gives 50% inhibition) with SMN2 mRNA is < 100 nM; in the test with MYB, 100 to 1000 nM.

On to `Cc1nc2c(C)c(O)c(-c3ccc4nc(N5CC[C@@H](NCC6CC6)C5)ccc4n3)cc2o1` (single isomer, unassigned) [Compound 295], for which the IC50 in the test on SMN2 mRNA (Homo sapiens) and in the test on MYB was < 100 nM in each case.

For the compound `Cc1nc2c(C)c(O)c(-c3ccc4nc(N5CC[C@H](NCC6CC6)C5)ccc4n3)cc2o1` (single isomer, unassigned) [Compound 296], the concentration for half-maximal inhibition (IC50) with SMN2 mRNA (Homo sapiens) and in the test with MYB was < 100 nM throughout.

Take `Cn1cc2cc(-c3ccc4nc(N5CC[C@@H](N[C@H]6C[C@@H](F)C6)C5)ccc4n3)c(O)cc2n1` (single isomer, unassigned) [Compound 300]: the half-inhibitory concentration (IC50) in the test on SMN2 mRNA (Homo sapiens) and in the test on MYB was < 100 nM throughout.

On to `Cn1cc2cc(-c3ccc4nc(N5CC[C@@H](NCC6CC6)C5)ccc4n3)c(O)c(F)c2n1` (single isomer, unassigned) [Compound 303], for which the IC50 with SMN2 mRNA (Homo sapiens) and in the test on MYB was < 100 nM throughout.

Take `Cn1cc2cc(-c3ccc4nc(N5CC[C@H](NCC6CC6)C5)ccc4n3)c(O)c(F)c2n1` (single isomer, unassigned) [Compound 304]: the IC50 in the test with SMN2 mRNA (Homo sapiens) and with MYB was < 100 nM throughout.

In the case of `Cn1cc2cc(-c3ccc4nc(N5CC[C@@H](NC6CC6)C5)ccc4n3)c(O)c(F)c2n1` (single isomer, unassigned) [Compound 305], the IC50 in the test with SMN2 mRNA (Homo sapiens) and in the test on MYB was < 100 nM throughout.

`Cn1cc2cc(-c3ccc4nc(N5CC[C@H](NC6CC6)C5)ccc4n3)c(O)c(F)c2n1` (single isomer, unassigned) [Compound 306]: the half-inhibitory concentration (IC50) with SMN2 mRNA (Homo sapiens) and in the test with MYB was < 100 nM in each case.

As for `Cc1nc2c(F)c(O)c(-c3ccc4nc(N5CC[C@@H](NC6CCC6)C5)ccc4n3)cc2o1` (single isomer, unassigned) [Compound 307], the IC50 with SMN2 mRNA (Homo sapiens) and in the test with MYB was < 100 nM throughout.

On to `Cc1nc2c(F)c(O)c(-c3ccc4nc(N5CC[C@H](NC6CCC6)C5)ccc4n3)cc2o1` (single isomer, unassigned) [Compound 308], for which the IC50 in the test on SMN2 mRNA (Homo sapiens) and with MYB was < 100 nM in each case.
